The values that follow come from patent US11905281B2 (Amgen Inc., priority 2017, dated 2024).

Read-outs that look alike come from different tables or passages of the source.

Assay [1] concerns Phosphorylation of ERK1/2 in MIA PaCa-2 cells. Put plainly: Phospho-ERK1/2 MSD Assay, MIA PaCa-2 (Table 16 conditions: 2 hours compound treatment). The note with it: 10 ng/mL EGF for 10 min, read-out: p-ERK IC50 (MIA PaCa-2). It is filed as cell-based.
Assay [2] concerns Phosphorylation of ERK1/2 in A549 cells. Put plainly: Phospho-ERK1/2 MSD Assay, A549 (Table 16 conditions: 2 hours compound treatment). Particulars: Homo sapiens, 10 ng/mL EGF for 10 min, read-out: p-ERK IC50 (A549). It counts as cell-based. On the procedure: (§1) For compounds in Table 16, the following assay conditions were employed:
Phospho-ERK1/2 MSD Assay: MIA PaCa-2 (ATCC® CRL-1420™) and A549 (ATCC® CCL-185™) cells were cultured in RPMI 1640 Medium (ThermoFisher Scientific 11875093) containing 10% fetal bovine serum (ThermoFisher Scientific 16000044) and 1× penicillin-streptomycin-glutamine (ThermoFisher Scientific 10378016). Sixteen hours prior to compound treatment, MIA PaCa-2 or A549 cells were seeded in 96-well cell culture plates at a density of 25,000 cells/well and incubated at 37° C., 5% CO2. A compound dose-response titration was diluted in growth media, added to appropriate wells of a cell culture plate, and then incubated at 37° C., 5% CO2 for 2 hours. Following compound treatment, cells were stimulated with 10 ng/mL EGF (Roche 11376454001) for 10 min, washed with ice-cold Dulbecco's phosphate-buffered saline, no Ca^2+ or Mg^2+ (ThermoFisher Scientific 14190144), and then lysed in RIP A buffer (50 mM Tris-HCl pH 7.5, 1% Igepal, 0.5% sodium deoxycholate, 150 mM NaCl, and 0.5% sodium dodecyl sulfate) containing protease inhibitors (Roche 4693132001) and phosphatase inhibitors (Roche 4906837001). […] Assay plates were read on a Meso Scale Discovery Sector Imager 6000, and data were analyzed using a 4-parameter logistic model to calculate IC50 values.

The target in assay [3] is GDP-bound KRAS protein (aa 1-169), containing both G12C and C118A amino acid substitutions (Homo sapiens, UniProt P01116, C118A/G12C). Put plainly: Coupled Nucleotide Exchange Assay (Table 16 conditions: 5 min pre-incubation). It is filed as biochemical. The note with it: 5 min compound pre-incubation; SOS-mediated nucleotide exchange, AlphaScreen. On the procedure: as §1
Sequence of GDP-bound KRAS protein (aa 1-169), containing both G12C and C118A amino acid substitutions (P01116 1-169 isoform P01116-2 G12C/C118A): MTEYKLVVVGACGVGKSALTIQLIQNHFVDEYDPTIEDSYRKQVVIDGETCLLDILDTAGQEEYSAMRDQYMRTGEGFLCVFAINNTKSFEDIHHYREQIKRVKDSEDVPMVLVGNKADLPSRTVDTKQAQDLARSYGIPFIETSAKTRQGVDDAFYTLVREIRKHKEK
The assay plates were then read on a PerkinElmer EnVision Multilabel Reader, using AlphaScreen® technology, and data were analyzed using a 4-parameter logistic model to calculate IC50 values.
On the technique in general: Bead proximity is the source of the signal in Alpha formats.

In general, IC50 refers to the concentration that gives 50% inhibition. For `C=CC(=O)N1CCN(c2nc(=O)n(-c3c(C)cccc3C(C)C)c3nc(-c4c(O)cccc4F)c(Cl)cc23)[C@@H](C)C1` [Example 39, 6-Chloro-7-(2-fluoro-6-hydroxyphenyl)-1-(2-methyl-6-(2-propanyl)phenyl)-4-((2S)-2-methyl-4-(2-propenoyl)-1-piperazinyl)pyrido[2,3-d]pyrimidin-2(1H)-one], the half-maximal inhibitory concentration (IC50) in assay [1] (MIA PaCa-2 cells) is 29 nM; in assay [2] it was greater than 100000 nM; in assay [3], 63 nM.

For `C=CC(=O)N1CCN(c2nc(=O)n(-c3scnc3C(C)C)c3nc(-c4c(O)cccc4F)c(Cl)cc23)[C@@H](C)C1` [Example 48, 6-Chloro-7-(2-fluoro-6-hydroxyphenyl)-4-((2S)-2-methyl-4-(2-propenoyl)-1-piperazinyl)-1-(4-(2-propanyl)-1,3-thiazol-5-yl)pyrido[2,3-d]pyrimidin-2(1H)-one], the IC50 was 63 nM in assay [1] (Homo sapiens, MIA PaCa-2, MIA PaCa-2 cells); greater than 10000 nM in assay [2]; 81 nM in assay [3].
